Data published in patent US9416347B2, “Method of treating bacterial contamination in a microalgae culture with pH shock” (Heliae Development LLC, priority 2014, dated 2016).
Where two headings read alike, the source gives them in different places.

Legend:
[1] = in water; cited from earlier work
Chlorella sp. [2] = conditions: pH lowered from about 7.5 to 3.5 for 15 minutes, raised back with 5M NaOH
Procedure: The first 400 ml culture was maintained as an untreated control at a pH of about 7.5. […] The pH treatments were applied directly to the cultures, without previous concentration of the microalgae or subsequent dilution through inoculation into fresh culture media. All cultures were incubated with shaking at 100 rpm in 5% carbon dioxide and 25° C. […] 100 μM photon/m^2 s of light was also provided to create mixotrophic growth conditions. The cultures were monitored for 4 days (96 hours with dry weight samples taken at 0, 48, and 96 hours). Live bacteria count samples were taken at 0 and 48 hours, and quantified using aerobic colony forming units (CFU) obtained from plate counts utilizing Petrifilm available from 3M (St. Paul, Minn.). A bacteria to microalgae ratio was also quantified using guava flow cytometry.

Chlorella sp. [3] = conditions: culture at 1,029 mg/L acetate, pH 3.5 for 15 minutes, returned to 7.5 with 2 M NaOH
Procedure: The pH treated culture samples were maintained at the culture pH of 3.5 for 15 minutes before returning the culture pH to 7.5 by adding 2 M NaOH.
The pH treatment was applied directly into the culture, without previous concentration or subsequent dilution through inoculation into a fresh media. All cultures were incubated with shaking at 100 rpm in 5% carbon dioxide and 25° C. […] 100 μM photon/m^2 s of light was also provided to create mixotrophic growth conditions. The cultures were monitored for 4 days (96 hours with dry weight samples taken at 0, 48, and 96 hours). Residual acetate analyses were carried at the end of the experiment.

Chlorella sp. [4] = test system: Chlorella sp.
Procedure: 100 mL volume cultures were prepared in 250 mL flasks, and cultured at a temperature of 25° C., a shaking frequency of 100 rpm, and a light intensity of 100 μM photon/m^2 s for 7 days (168 hours). The cultures were inoculated into two times BG-11 culture media at a cell density of 1.12 g/L. The different treatments of sodium acetate consisted of concentrations of 0, 2.5, 5, 7.5, 10, 20, 30, and 40 g/L. Samples were taken every 24 hours to measure the cell dry weights (g/L) of the cultures.

[5] = test system: live bacteria in mixotrophic culture of Chlorella; conditions: for Total live bacteria count: pH lowered to 3.5 with hydrochloric acid
Procedure: The 2 L sample was split into equal 1 L cultures in flasks, and incubated at 25° C. and 100 rpm (shaking) for 24 hours to allow metabolization of any residual acetate in the cultures. The two cultures were then blended together and then separated into equal 1 L cultures to ensure homogeneity in the two cultures. […] Samples were taken from both cultures to quantify the initial live bacteria count and subsequent counts using aerobic colony forming units (CFU) obtained from plate counts utilizing Petrifilm available from 3M (St. Paul, Minn.).

CC(=O)C(=O)O [pyruvic acid]
pKa [1]: about 2.5

CC(=O)O [Acetic acid, acetic acid]
cell dry weight (Chlorella sp. [2]; 0 h): 0.76 ± 0.00 g/L | cell dry weight (Chlorella sp. [2]; 48 h): 1.73 ± 0.04 g/L | cell dry weight (Chlorella sp. [2]; 96 h): 3.46 ± 0.09 g/L | Cell Dry Weight (Chlorella sp. [3]; 0 h): 0.80 ± 0.02 g/L | Cell Dry Weight (Chlorella sp. [3]; 48 h): 0.78 ± 0.06 g/L | Cell Dry Weight (Chlorella sp. [3]; 96 h): 0.89 ± 0.01 g/L

CC(=O)[O-].[Na+] [sodium acetate]
Growth of Chlorella (Chlorella sp. [4]; 2.5 g/L sodium acetate): 0.620 g/L day | Cell dry weights of treatments by Concentration of Sodium Acetate (Chlorella sp. [4]; 2.5 g/L sodium acetate, 0 h): 0.12 g/L | Cell dry weights of treatments by Concentration of Sodium Acetate (Chlorella sp. [4]; 2.5 g/L sodium acetate, 24 h): 0.23 g/L | Cell dry weights of treatments by Concentration of Sodium Acetate (Chlorella sp. [4]; 2.5 g/L sodium acetate, 48 h): 0.85 g/L | Cell dry weights of treatments by Concentration of Sodium Acetate (Chlorella sp. [4]; 2.5 g/L sodium acetate, 72 h): 1.10 g/L | Cell dry weights of treatments by Concentration of Sodium Acetate (Chlorella sp. [4]; 2.5 g/L sodium acetate, 144 h): 2.72 g/L | Cell dry weights of treatments by Concentration of Sodium Acetate (Chlorella sp. [4]; 2.5 g/L sodium acetate, 168 h): 3.23 g/L | Growth of Chlorella (Chlorella sp. [4]; 5 g/L sodium acetate): 0.065 g/L day | Cell dry weights of treatments by Concentration of Sodium Acetate (Chlorella sp. [4]; 5 g/L sodium acetate, 0 h): 0.12 g/L | Cell dry weights of treatments by Concentration of Sodium Acetate (Chlorella sp. [4]; 5 g/L sodium acetate, 24 h): 0.19 g/L | Cell dry weights of treatments by Concentration of Sodium Acetate (Chlorella sp. [4]; 5 g/L sodium acetate, 48 h): 0.25 g/L | Cell dry weights of treatments by Concentration of Sodium Acetate (Chlorella sp. [4]; 5 g/L sodium acetate, 72 h): 0.55 g/L | Cell dry weights of treatments by Concentration of Sodium Acetate (Chlorella sp. [4]; 5 g/L sodium acetate, 144 h): 1.89 g/L | Cell dry weights of treatments by Concentration of Sodium Acetate (Chlorella sp. [4]; 5 g/L sodium acetate, 168 h): 2.41 g/L | Cell dry weights of treatments by Concentration of Sodium Acetate (Chlorella sp. [4]; 7.5 g/L sodium acetate, 0 h): 0.12 g/L | Cell dry weights of treatments by Concentration of Sodium Acetate (Chlorella sp. [4]; 7.5 g/L sodium acetate, 24 h): 0.17 g/L | Cell dry weights of treatments by Concentration of Sodium Acetate (Chlorella sp. [4]; 7.5 g/L sodium acetate, 48 h): 0.15 g/L | Cell dry weights of treatments by Concentration of Sodium Acetate (Chlorella sp. [4]; 7.5 g/L sodium acetate, 72 h): 0.13 g/L | Cell dry weights of treatments by Concentration of Sodium Acetate (Chlorella sp. [4]; 7.5 g/L sodium acetate, 144 h): 0.10 g/L | Cell dry weights of treatments by Concentration of Sodium Acetate (Chlorella sp. [4]; 7.5 g/L sodium acetate, 168 h): 0.07 g/L | Cell dry weights of treatments by Concentration of Sodium Acetate (Chlorella sp. [4]; 10 g/L sodium acetate, 0 h): 0.12 g/L | Cell dry weights of treatments by Concentration of Sodium Acetate (Chlorella sp. [4]; 10 g/L sodium acetate, 24 h): 0.13 g/L | Cell dry weights of treatments by Concentration of Sodium Acetate (Chlorella sp. [4]; 10 g/L sodium acetate, 48 h): 0.16 g/L | Cell dry weights of treatments by Concentration of Sodium Acetate (Chlorella sp. [4]; 10 g/L sodium acetate, 72 h): 0.11 g/L | Cell dry weights of treatments by Concentration of Sodium Acetate (Chlorella sp. [4]; 10 g/L sodium acetate, 144 h): 0.09 g/L | Cell dry weights of treatments by Concentration of Sodium Acetate (Chlorella sp. [4]; 10 g/L sodium acetate, 168 h): 0.00 g/L | Cell dry weights of treatments by Concentration of Sodium Acetate (Chlorella sp. [4]; 20 g/L sodium acetate, 0 h): 0.12 g/L | Cell dry weights of treatments by Concentration of Sodium Acetate (Chlorella sp. [4]; 20 g/L sodium acetate, 24 h): 0.16 g/L | Cell dry weights of treatments by Concentration of Sodium Acetate (Chlorella sp. [4]; 20 g/L sodium acetate, 48 h): 0.13 g/L | Cell dry weights of treatments by Concentration of Sodium Acetate (Chlorella sp. [4]; 20 g/L sodium acetate, 72 h): 0.12 g/L | Cell dry weights of treatments by Concentration of Sodium Acetate (Chlorella sp. [4]; 20 g/L sodium acetate, 144 h): 0.07 g/L | Cell dry weights of treatments by Concentration of Sodium Acetate (Chlorella sp. [4]; 20 g/L sodium acetate, 168 h): 0.00 g/L | Cell dry weights of treatments by Concentration of Sodium Acetate (Chlorella sp. [4]; 30 g/L sodium acetate, 0 h): 0.12 g/L | Cell dry weights of treatments by Concentration of Sodium Acetate (Chlorella sp. [4]; 30 g/L sodium acetate, 24 h): 0.14 g/L | Cell dry weights of treatments by Concentration of Sodium Acetate (Chlorella sp. [4]; 30 g/L sodium acetate, 48 h): 0.11 g/L | Cell dry weights of treatments by Concentration of Sodium Acetate (Chlorella sp. [4]; 30 g/L sodium acetate, 72 h): 0.09 g/L | Cell dry weights of treatments by Concentration of Sodium Acetate (Chlorella sp. [4]; 30 g/L sodium acetate, 144 h): 0.08 g/L | Cell dry weights of treatments by Concentration of Sodium Acetate (Chlorella sp. [4]; 30 g/L sodium acetate, 168 h): 0.00 g/L | Cell dry weights of treatments by Concentration of Sodium Acetate (Chlorella sp. [4]; 40 g/L sodium acetate, 0 h): 0.12 g/L | Cell dry weights of treatments by Concentration of Sodium Acetate (Chlorella sp. [4]; 40 g/L sodium acetate, 24 h): 0.11 g/L | Cell dry weights of treatments by Concentration of Sodium Acetate (Chlorella sp. [4]; 40 g/L sodium acetate, 48 h): 0.09 g/L | Cell dry weights of treatments by Concentration of Sodium Acetate (Chlorella sp. [4]; 40 g/L sodium acetate, 72 h): 0.10 g/L | Cell dry weights of treatments by Concentration of Sodium Acetate (Chlorella sp. [4]; 40 g/L sodium acetate, 144 h): 0.09 g/L | Cell dry weights of treatments by Concentration of Sodium Acetate (Chlorella sp. [4]; 40 g/L sodium acetate, 168 h): 0.00 g/L | tolerance limit for this strain of Chlorella (Chlorella sp. [4]; as restated in Example 10): 7500 mg/L | Growth of Chlorella (Chlorella sp. [4]; concentrations of 7.5 g/L and higher): did not show any growth | acetate concentration tolerance for Chlorella (Chlorella sp. [4]; mixotrophic flask culture, 7 days): approximately 7.5 g/L | live bacteria counts (below detection) ([5]; 2.5 g/L sodium acetate, pH 3.5 with HCl, after 60 minutes): < 1,000 CFU/ml | live bacteria ([5]; 2.5 g/L sodium acetate, pH 3.5 with HCl, after 180 minutes): no measurable live bacterium | Total live bacteria count ([5]; 2.5 g/L sodium acetate, 0 min): 5.00E+06 CFU | Total live bacteria count ([5]; 2.5 g/L sodium acetate, 5 min): 8.00E+04 CFU | Total live bacteria count ([5]; 2.5 g/L sodium acetate, 15 min): 4.00E+04 CFU | Total live bacteria count ([5]; 2.5 g/L sodium acetate, 30 min): none detected | Total live bacteria count ([5]; 2.5 g/L sodium acetate, 60 min): 1.00E+03 CFU | Total live bacteria count ([5]; 2.5 g/L sodium acetate, 180 min): 1.00E+03 CFU | reduction in live bacteria ([5]; sodium acetate present and treated with second acid, after 60 minutes): 3.5 order of magnitude

CCCCCCCCCCCCCCCC(=O)O [palmitic acid]
pKa [1]: about 4.7

O=C(O)CC(O)C(=O)O (centres unmarked) [malic acid]
pKa [1]: about 3.4
